# According to publication PMC8162404, “Proteomimetic surface fragments distinguish targets by function” (Chemical Science, 2020):
# pKd: −log10 of the molar value.
# How the values were obtained:
# S100B [1] = biological target: T1, S100B (Homo sapiens, UniProt P04271); assay: Competition pull-down with native ligand RSK1 (689–735); type: binding; conditions: H14 library; competitor peptide 200 µM; read-out: Surface mapping KD (apparent), competition
# T1 construct: made in house; host or cells: Escherichia coli BL21(DE3)
# T1 sequence (P04271 1-92): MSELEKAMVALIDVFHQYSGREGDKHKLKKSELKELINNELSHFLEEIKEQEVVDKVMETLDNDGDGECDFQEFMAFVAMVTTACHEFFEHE
# CaM = biological target: T2, CaM (Bos taurus, UniProt P62157); assay: Pull-down assay with immobilized protein and LSM libraries; type: binding, bovine; conditions: H14 library; 1:2 stoichiometry assumed; read-out: Surface mapping KD (apparent)
# T2 construct: made in house; host or cells: E. coli BL21 (DE3)
# How it was run: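 His-tagged protein immobilized on Co-NTA resin, equilibrated 30 min at room temperature with LSM sublibraries (64 members, […]), equimolar protein to total probe. CaM buffer: 20 mM HEPES pH 7.4, 150 mM NaCl, 5 mM CaCl2. Bound fractions from HPLC-MS loss of unbound probe versus protein-free resin control; Kd derived.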
# S100B [2] = biological target: T1, S100B; assay: as above; type: binding; conditions: H14 library; 1:1 binding assumed; read-out: Surface mapping KD (apparent)
# How it was run: (§1)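 Buffers were HEPES pH 7.4 with 150 mM NaCl, plus 1 mM TCEP and 1 mM CaCl2 (50 mM HEPES) for S100A4 and S100B, 1 mM TCEP for Gal-1, and no additive for RecQ-WH. Immobilized protein at 64 µM was equilibrated 30 min with the LSM sublibrary, and unbound probes were measured by LC-MS.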
# S100A4 = biological target: T3, S100A4 (Homo sapiens, UniProt P26447); assay: as above; type: binding; conditions: H14 library; 1:1 binding assumed; read-out: Surface mapping KD (apparent)
# T3 construct: made in house; host or cells: Escherichia coli BL21(DE3)
# T3 sequence (P26447 whole entry): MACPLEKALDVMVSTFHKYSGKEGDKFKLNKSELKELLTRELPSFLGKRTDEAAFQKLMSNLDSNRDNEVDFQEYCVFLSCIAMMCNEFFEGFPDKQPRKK
# How it was run: as §1
# Gal-1 = biological target: T4, Gal-1 (Homo sapiens, UniProt P09382); assay: as above; type: binding; conditions: H14 library; 1:1 binding assumed; read-out: Surface mapping KD (apparent)
# T4 construct: made in house; host or cells: E. coli BL21(DE3)
# T4 sequence (P09382 whole entry): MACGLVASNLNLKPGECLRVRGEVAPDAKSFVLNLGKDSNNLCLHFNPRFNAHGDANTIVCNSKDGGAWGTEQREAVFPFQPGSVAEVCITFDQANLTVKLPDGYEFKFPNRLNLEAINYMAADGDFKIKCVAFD
# How it was run: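 His-tagged protein immobilized on Co-NTA resin (64 µM) in 20 mM HEPES pH 7.4, 150 mM NaCl, equilibrated 30 min at room temperature with foldamer LSM sublibraries at equimolar total concentration. Unbound fractions quantified by HPLC-MS versus protein-free resin control; apparent KD assumes 1:1 binding.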
pKd (S100B [1]),pKd (CaM),pKd (S100B [2]),pKd (S100A4),pKd (Gal-1),Structure (SMILES)
3.62,4.89,3.97,5.15,3.61,CC[C@H](C)[C@@H](CC(=O)N[C@H]1CCCC[C@@H]1C(N)=O)NC(=O)[C@H]1CCCC[C@@H]1NC(=O)[C@H]1CCCC[C@@H]1NC(=O)C[C@H](C)NC(=O)[C@H]1CCCC[C@@H]1N [H14 AI]
3.53,4.80,3.97,5.15,3.61,CC[C@H](C)[C@@H](CC(=O)N[C@H]1CCCC[C@@H]1C(=O)N[C@H]1CCCC[C@@H]1C(=O)N[C@@H](C)CC(=O)N[C@H]1CCCC[C@@H]1C(N)=O)NC(=O)[C@H]1CCCC[C@@H]1N [H14 IA]
3.34,3.85,3.42,4.10,3.58,CC[C@H](C)[C@@H](CC(=O)N[C@H]1CCCC[C@@H]1C(=O)N[C@H]1CCCC[C@@H]1C(=O)N[C@@H](CO)CC(=O)N[C@H]1CCCC[C@@H]1C(N)=O)NC(=O)[C@H]1CCCC[C@@H]1N [H14 IS]
3.42,4.80,3.42,4.14,3.41,CSCC[C@@H](CC(=O)N[C@H]1CCCC[C@@H]1C(=O)N[C@H]1CCCC[C@@H]1C(=O)N[C@@H](C)CC(=O)N[C@H]1CCCC[C@@H]1C(N)=O)NC(=O)[C@H]1CCCC[C@@H]1N [H14 MA]
3.64,4.59,4.03,5.30,–,CSCC[C@@H](CC(=O)N[C@H]1CCCC[C@@H]1C(N)=O)NC(=O)[C@H]1CCCC[C@@H]1NC(=O)[C@H]1CCCC[C@@H]1NC(=O)C[C@@H](NC(=O)[C@H]1CCCC[C@@H]1N)C(C)C [H14 VM]

# Second part, the compound before the results:
Structure (SMILES),pKd (S100B [1]),pKd (CaM),pKd (S100B [2]),pKd (S100A4),pKd (Gal-1)
C[C@@H](CC(=O)N[C@H]1CCCC[C@@H]1C(=O)N[C@H]1CCCC[C@@H]1C(=O)N[C@H](CC(=O)N[C@H]1CCCC[C@@H]1C(N)=O)Cc1ccc(O)cc1)NC(=O)[C@H]1CCCC[C@@H]1N [H14 AY],3.52,3.92,3.72,3.66,3.45
CC[C@H](C)[C@@H](CC(=O)N[C@H]1CCCC[C@@H]1C(=O)N[C@H]1CCCC[C@@H]1C(=O)N[C@@H](CCCNC(=N)N)CC(=O)N[C@H]1CCCC[C@@H]1C(N)=O)NC(=O)[C@H]1CCCC[C@@H]1N [H14 IR],3.76,4.70,4.43,3.99,–
CC(C)C[C@@H](CC(=O)N[C@H]1CCCC[C@@H]1C(=O)N[C@H]1CCCC[C@@H]1C(=O)N[C@@H](CCCCN)CC(=O)N[C@H]1CCCC[C@@H]1C(N)=O)NC(=O)[C@H]1CCCC[C@@H]1N [H14 LK],3.50,4.57,4.09,3.51,–
CC(C)C[C@@H](CC(=O)N[C@H]1CCCC[C@@H]1C(=O)N[C@H]1CCCC[C@@H]1C(=O)N[C@@H](CC(N)=O)CC(=O)N[C@H]1CCCC[C@@H]1C(N)=O)NC(=O)[C@H]1CCCC[C@@H]1N [H14 LN],3.60,3.53,3.39,3.36,3.50
CC(C)C[C@@H](CC(=O)N[C@H]1CCCC[C@@H]1C(=O)N[C@H]1CCCC[C@@H]1C(=O)N[C@@H](CCCNC(=N)N)CC(=O)N[C@H]1CCCC[C@@H]1C(N)=O)NC(=O)[C@H]1CCCC[C@@H]1N [H14 LR],3.78,4.85,4.09,3.86,3.94
CC(C)C[C@@H](CC(=O)N[C@H]1CCCC[C@@H]1C(=O)N[C@H]1CCCC[C@@H]1C(=O)N[C@@H](CO)CC(=O)N[C@H]1CCCC[C@@H]1C(N)=O)NC(=O)[C@H]1CCCC[C@@H]1N [H14 LS],3.43,4.00,3.42,3.71,3.30
CC(C)C[C@@H](CC(=O)N[C@H]1CCCC[C@@H]1C(=O)N[C@H]1CCCC[C@@H]1C(=O)N[C@H](CC(=O)N[C@H]1CCCC[C@@H]1C(N)=O)[C@@H](C)O)NC(=O)[C@H]1CCCC[C@@H]1N [H14 LT],3.53,4.41,3.79,4.18,3.47
